These are literature values, as cited in US20060093222A1, “Data processing, analysis, and visualization system for use with disparate data types” (priority 1999, published 2006).

In data set [1] the test system is Bacillus subtilis and Bacillus cereus. Particulars: liquid and semi-solid substrates, aerobic and anaerobic.
In data set [2] the test system is stroke patients.

Take `O=S(O)S(=O)(=O)O` [metabisulphite]: the anti-sporulation effect entry in data set [1] is recorded as “effective anti-sporulation agent”.

With Tissue plasminogen activator [t-PA], the “additional patients normal or nearly normal 3 months after their stroke” value in data set [2] (for every 100 stroke patients treated with t-PA) is given as 11-13. In data set [2] (t-PA therapy, stroke patients), the “rate of fatal ICH” value is 3% and the “rate of symptomatic intracerebral hemorrhage (ICH)” value was 6%.
